From patent US9339034B2, “Use of thaxtomin for selective control of rice and aquatic based weeds” (MARRONE BIO INNOVATIONS, INC., priority 2009, dated 2016)

Columns and labels:
EO2 = assay: Greenhouse pot study, weed control; assay type: in vivo, Echinochloa spp.
Excerpt: (§1) Moderate suppression (60%) was noted on Echinochloa colonum at 500 g a.i. per hectare.

AMM = assay: Greenhouse pot study, weed control; assay type: in vivo, Ammania spp.
Excerpt: as §1

DSA = assay: Greenhouse pot study, weed control; assay type: in vivo, Heteranthem limosa
WPL = assay: Greenhouse pot study, weed control; assay type: in vivo, Alisma-plamago aquatica
Excerpt: as §1

transplanted rice = assay: First study, crop safety; assay type: in vivo; details: all rates tested (64 to 1000 g a.i. per hectare)
Cyperus sp = assay: Pot study, spray of pure thaxtomin A solutions, % control; assay type: in vivo, smallflower umbrella sedge; Cyperus diiformis
Protocol: (§2) A pot study was conducted to test the phytotoxicity of thaxtomin A on broadleaved, sedge and grass weeds. Seeds of two most common broadleaf (redstem; Ammannia spp. and common waterplantain; Alisma plantago-aquatica), sedge (smallflower umbrella sedge; Cyperus diiformis) and grass (sprangletop: Leptochloa uninervia) weeds each were planted in a plastic pots filled with heavy clay soil. The less than 1-inch tall plants grown under growth lights (12-h light/12-h dark) at 28° C. were sprayed with pure thaxtomin A solutions containing 0.05, 0.1, 0.2, and 0.4 mg thaxtomin A per mL of solvent (4% ethanol and 0.2% non-ionic surfactant). A solution of 4% ethanol+0.2% non-ionic surfactant without thaxtomin A was used as a control treatment. Same treatments were applied to three-inch tall rice plants grown submerged under growth lights at 28° C. […] All treatments were applied in three replicates. Treated plants were kept at 28° C. under growth lights and observed at three time points—5, 12 and 21 days after treatment—for visual symptoms of phytotoxicity and % control.

Leptochloa sp = assay: as above; assay type: in vivo, sprangletop: Leptochloa uninervia
Protocol: as §2

CN1C(=O)[C@](O)(Cc2cccc(O)c2)N(C)C(=O)[C@@H]1Cc1c[nH]c2cccc([N+](=O)[O-])c12 [thaxtomin A]
% control (EO2; EO2, 64 g/ha): 0% | % control (EO2; EO2, 125 g/ha): 0% | % control (EO2; EO2, 250 g/ha): 20% | % control (EO2; EO2, 500 g/ha): 20% | % control (EO2; EO2, 1000 g/ha): 30% | % control (AMM; 64 g/ha): 0% | % control (AMM; 125 g/ha): 30% | % control (AMM; 250 g/ha): 90% | % control (AMM; 500 g/ha): 100% | % control (AMM; 1000 g/ha): 100% | % control (DSA; 64 g/ha): 0% | % control (DSA; 125 g/ha): 100% | % control (DSA; 250 g/ha): 100% | % control (DSA; 500 g/ha): 100% | % control (DSA; 1000 g/ha): 100% | % control (WPL; 64 g/ha): 0% | % control (WPL; 125 g/ha): 70% | % control (WPL; 250 g/ha): 95% | % control (WPL; 500 g/ha): 100% | % control (WPL; 1000 g/ha): 100% | safety to transplanted rice (transplanted rice): complete safety | % control (Cyperus sp; Cyperus sp, 5 DAYS, 0.05 mg/mL in 4% ethanol): 5a % | % control (Cyperus sp; Cyperus sp, 5 DAYS, 0.1 mg/mL in 4% ethanol): 12a % | % control (Cyperus sp; Cyperus sp, 5 DAYS, 0.2 mg/mL in 4% ethanol): 16a % | % control (Cyperus sp; Cyperus sp, 5 DAYS, 0.4 mg/mL in 4% ethanol): 25a % | % control (Cyperus sp; Cyperus sp, 12 DAYS, 0.05 mg/mL in 4% ethanol): 15a % | % control (Cyperus sp; Cyperus sp, 12 DAYS, 0.1 mg/mL in 4% ethanol): 75b % | % control (Cyperus sp; Cyperus sp, 12 DAYS, 0.2 mg/mL in 4% ethanol): 77b % | % control (Cyperus sp; Cyperus sp, 12 DAYS, 0.4 mg/mL in 4% ethanol): 73b % | % control (Cyperus sp; Cyperus sp, 21 DAYS, 0.05 mg/mL in 4% ethanol): 53b % | % control (Cyperus sp; Cyperus sp, 21 DAYS, 0.1 mg/mL in 4% ethanol): 90c % | % control (Cyperus sp; Cyperus sp, 21 DAYS, 0.2 mg/mL in 4% ethanol): 88c % | % control (Cyperus sp; Cyperus sp, 21 DAYS, 0.4 mg/mL in 4% ethanol): 83c % | % control (Cyperus sp; sedge (Cyperus difformis), highest concentration (0.4 mg/mL)): 75-80% | % control (Leptochloa sp; 5 DAYS, 0.05 mg/mL in 4% ethanol): 0% | % control (Leptochloa sp; 5 DAYS, 0.1 mg/mL in 4% ethanol): 0% | % control (Leptochloa sp; 5 DAYS, 0.2 mg/mL in 4% ethanol): 0% | % control (Leptochloa sp; 5 DAYS, 0.4 mg/mL in 4% ethanol): 0% | % control (Leptochloa sp; 12 DAYS, 0.05 mg/mL in 4% ethanol): 0a % | % control (Leptochloa sp; 12 DAYS, 0.1 mg/mL in 4% ethanol): 2a % | % control (Leptochloa sp; 12 DAYS, 0.2 mg/mL in 4% ethanol): 10b % | % control (Leptochloa sp; 12 DAYS, 0.4 mg/mL in 4% ethanol): 10b % | % control (Leptochloa sp; 21 DAYS, 0.05 mg/mL in 4% ethanol): 0a % | % control (Leptochloa sp; 21 DAYS, 0.1 mg/mL in 4% ethanol): 3a % | % control (Leptochloa sp; 21 DAYS, 0.2 mg/mL in 4% ethanol): 12a % | % control (Leptochloa sp; 21 DAYS, 0.4 mg/mL in 4% ethanol, listed as Thaxtomin): 17a % | % control (Leptochloa sp; 21 DAYS, 0.4 mg/mL in 4% ethanol, listed as Thaxtomin A): 17%
